Read-outs that look alike come from different tables or passages of the source.
Legend:
[1] = tested on: Enterococcus faecalis EFS.312, Daptomycin resistant mutant (EFA); format: cell-based; conditions: MHBc with 50 mg/L calcium, 18-20 hours at 37° C.
Protocol: (§1) Compounds according to Formula I were tested for antimicrobial activity against a panel of organisms. Aerobic organisms, Staphylococcus aureus, Enterococcus faecalis and E. faecium, were tested by broth microdilution according to Clinical and Laboratory Standards Institute (CLSI) document M7-A7 (Clinical and Laboratory Standards Institute. Methods for Dilution Antimicrobial Susceptibility Tests for Bacteria that Grow Aerobically; Approved Standard—Seventh Edition. CLSI document M7-A7 [ISBN 1-56238-587-9]. Clinical and Laboratory Standards Institute, 940 West Valley Road, Suite 1400, Wayne, Pa. 19087-1898 USA, 2006) with modifications as described below. Mueller Hinton Broth (MHBc) was supplemented with 50 mg/L calcium (equivalent to human physiological levels of calcium) and assay plates were incubated 18-20 hours at 37° C. with aeration (200 rpm).
(§2) In all cases the final concentration of dimethyl sulfoxide incubated with cells is less than or equal to 1%. For minimum inhibitory concentration (MIC) calculations, 2-fold dilutions of compounds were added to wells of a microtiter plate containing 5×10^5 bacteria in a final volume of 100 μL of media. Following incubation, (18-20 hours at 37° C. with aeration at 200 rpm) growth was confirmed visually by placing plates over a viewing apparatus (stand with a mirror underneath) and then the optical density (OD600) was measured using a SpectraMax 340PC^384 plate reader. Growth was defined as turbidity that could be detected with the naked eye or achieving minimum OD600of 0.1. MIC values (in μg/mL) were defined as the lowest concentration producing no visible turbidity.

[2] = tested on: Enterococcus faecium EFM.384, Daptomycin resistant mutant (14-A); format: cell-based; conditions: MHBc with 50 mg/L calcium, 18-20 hours at 37° C.
Protocol: as §1, §2

[3] = tested on: Staphylococcus aureus SAU.42 (ATCC 29213); format: cell-based
Protocol: as §1, §2

[4] = tested on: Enterococcus faecium EFM.14 (ATCC 6569); format: cell-based
Protocol: as §1, §2

[5] = tested on: Enterococcus faecalis EFS.201 (ATCC 49452); format: cell-based
Protocol: as §1, §2

[6] = tested on: Staphylococcus aureus SAU.399 (ATCC 43300), Methicillin and Oxacillin Resistant; format: cell-based; conditions: ATCC 43300
Protocol: as §1, §2

[7] = tested on: Staphylococcus aureus SAU.278, Daptomycin resistant mutant (D10); format: cell-based; conditions: MHBc with 50 mg/L calcium, 18-20 hours at 37° C.
Protocol: as §1, §2

[8] = tested on: Clostridium difficile
[9] = MHBc with 50 mg/L calcium, 18-20 hours at 37° C.

Compound	Efs312 MIC [1]	Efm384 MIC [2]	Sa42 MIC ([3]; ATCC 29213)	Efm14 MIC ([4]; ATCC 6569)	Efs201 MIC ([5]; ATCC 49452)	Sa399 MIC [6]	Sa278 MIC [7]	C. diff MIC90 [8]	Sa42 MIC [3, 9]	Efm14 MIC [4, 9]	Efs201 MIC [5, 9]
CCCCCCCCC(=O)N[C@@H](Cc1c[nH]c2ccccc12)C(=O)N[C@H](CC(N)=O)C(=O)N[C@@H](CC(=O)O)C(=O)N[C@@H]1C(=O)NCC(=O)N[C@@H](CCCN)C(=O)N[C@@H](CC(=O)O)C(=O)N[C@H](C)C(=O)N[C@@H](CC(=O)O)C(=O)NCC(=O)N[C@H](CO)C(=O)N[C@@H]([C@H](C)CC(=O)O)C(=O)N[C@@H](CC(=O)c2ccccc2N)C(=O)O[C@@H]1C [Compound 1]	>32 µg/mL	>32 µg/mL	8 µg/mL	32 µg/mL	32 µg/mL	2 µg/mL	>32 µg/mL				
CCCCCCCCCCCC(=O)N[C@@H](Cc1c[nH]c2ccccc12)C(=O)N[C@H](CC(N)=O)C(=O)N[C@@H](CC(=O)O)C(=O)N[C@@H]1C(=O)NCC(=O)N[C@@H](CCCN)C(=O)N[C@@H](CC(=O)O)C(=O)N[C@H](C)C(=O)N[C@@H](CC(=O)O)C(=O)NCC(=O)N[C@H](CO)C(=O)N[C@@H]([C@H](C)CC(=O)O)C(=O)N[C@@H](CC(=O)c2ccccc2N)C(=O)O[C@@H]1C [Compound 3]	32 µg/mL	4 µg/mL	0.5 µg/mL	1 µg/mL	0.5 µg/mL	1 µg/mL	1 µg/mL				
CC(C)CCCCCCC(=O)N[C@@H](Cc1c[nH]c2ccccc12)C(=O)N[C@H](CC(N)=O)C(=O)N[C@@H](CC(=O)O)C(=O)N[C@@H]1C(=O)NCC(=O)N[C@@H](CCCN)C(=O)N[C@@H](CC(=O)O)C(=O)N[C@H](C)C(=O)N[C@@H](CC(=O)O)C(=O)NCC(=O)N[C@H](CO)C(=O)N[C@@H]([C@H](C)CC(=O)O)C(=O)N[C@@H](CC(=O)c2ccccc2N)C(=O)O[C@@H]1C [Compound 9]	>32 µg/mL	32 µg/mL	0.5 µg/mL	4 µg/mL	4 µg/mL	0.5 µg/mL	8 µg/mL				
CCCCCCCCCC(C)(C)C(=O)N[C@@H](Cc1c[nH]c2ccccc12)C(=O)N[C@H](CC(N)=O)C(=O)N[C@@H](CC(=O)O)C(=O)N[C@@H]1C(=O)NCC(=O)N[C@@H](CCCN)C(=O)N[C@@H](CC(=O)O)C(=O)N[C@H](C)C(=O)N[C@@H](CC(=O)O)C(=O)NCC(=O)N[C@H](CO)C(=O)N[C@@H]([C@H](C)CC(=O)O)C(=O)N[C@@H](CC(=O)c2ccccc2N)C(=O)O[C@@H]1C [Compound 12]	32 µg/mL	>32 µg/mL	4 µg/mL	8 µg/mL	16 µg/mL	2 µg/mL	8 µg/mL				
CCCCCCCC(C)C(=O)N[C@@H](Cc1c[nH]c2ccccc12)C(=O)N[C@H](CC(N)=O)C(=O)N[C@@H](CC(=O)O)C(=O)N[C@@H]1C(=O)NCC(=O)N[C@@H](CCCN)C(=O)N[C@@H](CC(=O)O)C(=O)N[C@H](C)C(=O)N[C@@H](CC(=O)O)C(=O)NCC(=O)N[C@H](CO)C(=O)N[C@@H]([C@H](C)CC(=O)O)C(=O)N[C@@H](CC(=O)c2ccccc2N)C(=O)O[C@@H]1C (stereo partly shown) [Compound 13]	>32 µg/mL	>32 µg/mL	2 µg/mL	16 µg/mL	16 µg/mL	1 µg/mL	32 µg/mL				
CCCCCC1CCC([C@H]2CC[C@H](C(=O)N[C@@H](Cc3c[nH]c4ccccc34)C(=O)N[C@H](CC(N)=O)C(=O)N[C@@H](CC(=O)O)C(=O)N[C@@H]3C(=O)NCC(=O)N[C@@H](CCCN)C(=O)N[C@@H](CC(=O)O)C(=O)N[C@H](C)C(=O)N[C@@H](CC(=O)O)C(=O)NCC(=O)N[C@H](CO)C(=O)N[C@@H]([C@H](C)CC(=O)O)C(=O)N[C@@H](CC(=O)c4ccccc4N)C(=O)O[C@@H]3C)CC2)CC1 (stereo partly shown) [Compound 20]	4 µg/mL		0.5 µg/mL		0.5 µg/mL	2 µg/mL	8 µg/mL				
CC(C)C1CCC(CCCC(=O)N[C@@H](Cc2c[nH]c3ccccc23)C(=O)N[C@H](CC(N)=O)C(=O)N[C@@H](CC(=O)O)C(=O)N[C@@H]2C(=O)NCC(=O)N[C@@H](CCCN)C(=O)N[C@@H](CC(=O)O)C(=O)N[C@H](C)C(=O)N[C@@H](CC(=O)O)C(=O)NCC(=O)N[C@H](CO)C(=O)N[C@@H]([C@H](C)CC(=O)O)C(=O)N[C@@H](CC(=O)c3ccccc3N)C(=O)O[C@@H]2C)CC1 (stereo partly shown) [Compound 21]	32 µg/mL		0.063 µg/mL		0.25 µg/mL	1 µg/mL	2 µg/mL				
CCCCCc1ccc(C(=O)N[C@@H](Cc2c[nH]c3ccccc23)C(=O)N[C@H](CC(N)=O)C(=O)N[C@@H](CC(=O)O)C(=O)N[C@@H]2C(=O)NCC(=O)N[C@@H](CCCN)C(=O)N[C@@H](CC(=O)O)C(=O)N[C@H](C)C(=O)N[C@@H](CC(=O)O)C(=O)NCC(=O)N[C@H](CO)C(=O)N[C@@H]([C@H](C)CC(=O)O)C(=O)N[C@@H](CC(=O)c3ccccc3N)C(=O)O[C@@H]2C)cc1 [Compound 31]	>32 µg/mL	>32 µg/mL	4 µg/mL	16 µg/mL	16 µg/mL	4 µg/mL	>32 µg/mL				
CCCCCCCCCOc1ccc(C(=O)N[C@@H](Cc2c[nH]c3ccccc23)C(=O)N[C@H](CC(N)=O)C(=O)N[C@@H](CC(=O)O)C(=O)N[C@@H]2C(=O)NCC(=O)N[C@@H](CCCN)C(=O)N[C@@H](CC(=O)O)C(=O)N[C@H](C)C(=O)N[C@@H](CC(=O)O)C(=O)NCC(=O)N[C@H](CO)C(=O)N[C@@H]([C@H](C)CC(=O)O)C(=O)N[C@@H](CC(=O)c3ccccc3N)C(=O)O[C@@H]2C)cc1 [Compound 37]	2 µg/mL	2 µg/mL					0.25 µg/mL	1 µg/mL	0.25 µg/mL	0.5 µg/mL	0.5 µg/mL
CC(C)Sc1ccc(-c2csc(C(=O)N[C@@H](Cc3c[nH]c4ccccc34)C(=O)N[C@H](CC(N)=O)C(=O)N[C@@H](CC(=O)O)C(=O)N[C@@H]3C(=O)NCC(=O)N[C@@H](CCCN)C(=O)N[C@@H](CC(=O)O)C(=O)N[C@H](C)C(=O)N[C@@H](CC(=O)O)C(=O)NCC(=O)N[C@H](CO)C(=O)N[C@@H]([C@H](C)CC(=O)O)C(=O)N[C@@H](CC(=O)c4ccccc4N)C(=O)O[C@@H]3C)c2)cc1 [Compound 55]	>32 µg/mL	8 µg/mL	0.5 µg/mL	2 µg/mL	2 µg/mL	0.25 µg/mL	4 µg/mL				
C[C@H](CC(=O)O)[C@@H]1NC(=O)[C@@H](CO)NC(=O)CNC(=O)[C@H](CC(=O)O)NC(=O)[C@@H](C)NC(=O)[C@H](CC(=O)O)NC(=O)[C@H](CCCN)NC(=O)CNC(=O)[C@@H](NC(=O)[C@H](CC(=O)O)NC(=O)[C@@H](CC(N)=O)NC(=O)[C@H](Cc2c[nH]c3ccccc23)NC(=O)c2ccc(-c3ccc(Cl)cc3)cc2)[C@@H](C)OC(=O)[C@H](CC(=O)c2ccccc2N)NC1=O [Compound 68]	>32 µg/mL	>32 µg/mL	4 µg/mL	16 µg/mL	16 µg/mL		32 µg/mL	16 µg/mL			

— US20150337013A1, “NOVEL ANTIBACTERIAL AGENTS FOR THE TREATMENT OF GRAM POSITIVE INFECTIONS” (priority 2008, published 2015)
